# Source: US20170313674A1, “BENZYLHYDROXIDE DERIVATIVES, PREPARATION THEREOF AND THERAPEUTIC USE THEREOF” (SANOFI, priority 2014, published 2017)
# Where a name gives a salt, the structure may show the parent alone.
# System: mitochondrial ATP production on non-small cell lung carcinoma cell lines NCI-H460
# Experiment: Mitochondrial ATP analysis (Cell Titer Glo) in NCI-H460 cells
# Assay type: cell-based
# Details: 1-hour incubation, with sodium iodoacetate (100 μM), concentration inhibiting 50% of mitochondrial ATP production, read-out: IC50 (mito ATP)
# Method: In order to evaluate the inhibitory activity of the all compounds, an in vitro assay was developed which read out is directly linked to mitochondrial complex 1 inhibition. Since mitochondrial complex 1 contributes to the formation of membrane potential coupled to the mitochondrial ATP synthesis, complex 1 inhibition directly leads in cells to the inhibition of mitochondrial ATP production. Cellular ATP contents were measured in presence of either glycolysis inhibitor (sodium iodocetate) and/or mitochondrial inhibitors (F0F1-ATPase inhibitor: oligomycin or mitochondrial uncoupler: FCCP) to determine the ATP production part relying either on glycolytic or on mitochondrial metabolism.
# Mitochondrial ATP Analysis
# The compounds of the invention were evaluated for their ability to inhibit mitochondrial
# ATP was measured using the Promega Cell Titer Glo kit and protocol. In summary, 1,000 cells were plated in 40 μL in a 384 well plate. 24 hours later, medium was replaced by 20 μl culture medium in presence of compounds: cells were treated in replicates of five with control (PBS), oligomycin A (10 μg/ml), FCCP (30 μM), or the compounds of the invention in dose effect both alone or in combination with sodium iodoacetate (100 μM). Following a 1-hour incubation, 20 μL of CellTtiter-glo™ reaction mix were added to each well for a final volume of 40 μL. Plates were then analyzed for luminescence with a Perkin Elmer EnVision. By comparing the different conditions, global ATP and percentages of both glycolytic and mitochondrial ATP were determined.
# The mitochondrial ATP production was calculated as the remaining ATP under iodoacetate treatment minus basal ATP (ATP content under iodoacetate and oligomycin treatment). Inhibitory activity of the compounds on mitochondrial ATP in NCI-H460 cells is expressed as the concentration needed to inhibit 50% of mitochondrial ATP production (IC50, M).
row,SMILES,IC50 [nM]
1,"COc1ccc(C(O)COc2ccc(-c3nc(C)c(-c4ccc(OCC(O)c5ccc(OC)c(OC)c5)cc4)o3)cc2)cc1OC (single isomer, unassigned) [Compound I-5, 1-(3,4-dimethoxyphenyl)-2-[4-[2-[4-[2-(3,4-dimethoxyphenyl)-2-hydroxy-ethoxy]phenyl]-4-methyl-oxazol-5-yl]phenoxy]ethanol]",8270
2,"COc1ccc(C(O)COc2ccc(-c3csc(-c4ccc(OCC(O)c5ccc(OC)c(OC)c5)cc4)n3)cc2)cc1OC (single isomer, unassigned) [Compound I-23, 1-(3,4-dimethoxyphenyl)-2-[4-[2-[4-[2-(3,4-dimethoxyphenyl)-2-hydroxy-ethoxy]phenyl]thiazol-4-yl]phenoxy]ethanol]",197
3,"COc1ccc(C(O)COc2ccc(-c3nsc(-c4ccc(OCC(O)c5ccc(OC)c(OC)c5)cc4)n3)cc2)cc1OC (single isomer, unassigned) [Compound I-41, 1-(3,4-dimethoxyphenyl)-2-[4-[5-[4-[2-(3,4-dimethoxyphenyl)-2-hydroxy-ethoxy]phenyl]-1,2,4-thiadiazol-3-yl]phenoxy]ethanol]",539
4,"COc1ccc(C(O)COc2ccc(-c3csc(-c4ccc(OCC(O)c5ccc(OC)c(OC(F)F)c5)cc4)n3)cc2)cc1OC(F)F (single isomer, unassigned) [Compound I-49, 1-[3-(difluoromethoxy)-4-methoxy-phenyl]-2-[4-[2-[4-[2-[3-(difluoromethoxy)-4-methoxy-phenyl]-2-hydroxy-ethoxy]phenyl]thiazol-4-yl]phenoxy]ethanol]",> 10000
5,"COc1ccc(C(O)COc2ccc(-c3csc(-c4ccc(OCC(O)c5ccc(OC)c(OC(F)F)c5)cc4)n3)cc2)cc1OC(F)F (single isomer, unassigned) [Compound I-50, 1-[3-(difluoromethoxy)-4-methoxy-phenyl]-2-[4-[2-[4-[2-[3-(difluoromethoxy)-4-methoxy-phenyl]-2-hydroxy-ethoxy]phenyl]thiazol-4-yl]phenoxy]ethanol]",1340
6,"COc1cc(C(O)COc2ccc(-c3csc(-c4ccc(OCC(O)c5ccc(OC(F)F)c(OC)c5)cc4)n3)cc2)ccc1OC(F)F (single isomer, unassigned) [Compound I-52, 1-[4-(difluoromethoxy)-3-methoxy-phenyl]-2-[4-[2-[4-[2-[4-(difluoromethoxy)-3-methoxy-phenyl]-2-hydroxy-ethoxy]phenyl]thiazol-4-yl]phenoxy]ethanol]",> 10000
7,"COc1ccc(C(O)COc2ccc(-c3nc(-c4ccc(OC(C)(C)C(O)c5ccc(OC)c(OC)c5)cc4)cs3)cc2)cc1OC (single isomer, unassigned) [Compound I-67, 1-(3,4-dimethoxyphenyl)-2-[4-[2-[4-[2-(3,4-dimethoxyphenyl)-2-hydroxy-ethoxy]phenyl]thiazol-4-yl]phenoxy]-2-methyl-propan-1-ol]",156
8,"COc1ccc(C(O)COc2ccc(-c3nc(-c4ccc(OC(C)(C)C(O)c5ccc(OC)c(OC)c5)cc4)cs3)cc2)cc1OC (single isomer, unassigned) [Compound I-68, 1-(3,4-dimethoxyphenyl)-2-[4-[2-[4-[2-(3,4-dimethoxyphenyl)-2-hydroxy-ethoxy]phenyl]thiazol-4-yl]phenoxy]-2-methyl-propan-1-ol]",32.8
9,"COc1ccc(C(O)COc2ccc(-c3cn(CCN4CCOCC4)c(-c4ccc(OCC(O)c5ccc(OC)c(OC)c5)cc4)n3)cc2)cc1OC (centres unmarked) [Compound I-60, 1-(3,4-dimethoxyphenyl)-2-[4-[2-[4-[2-(3,4-dimethoxyphenyl)-2-hydroxy-ethoxy]phenyl]-1-(2-morpholinoethyl)imidazo1-4-yl]phenoxy]ethanol hydrochloride]",> 10000

# Same assay, conditions: Homo sapiens, NCI-H460, 1 h, 1-hour incubation, with sodium iodoacetate (100 μM), concentration inhibiting 50% of mitochondrial ATP production, read-out: IC50 (mito ATP)
row,SMILES,IC50 [nM]
1,"COc1ccc(C(O)C(C)(C)Oc2ccc(-c3csc(-c4ccc(OC(C)(C)C(O)c5ccc(OC)c(OC)c5)cc4)n3)cc2)cc1OC (single isomer, unassigned) [Compound I-28, 1-(3,4-dimethoxyphenyl)-2-[4-[2-[4-[2-(3,4-dimethoxyphenyl)-2-hydroxy-1,1-dimethyl-ethoxy]phenyl]thiazol-4-yl]phenoxy]-2-methyl-propan-1-ol]",41.8
2,"COc1ccc(C(O)COc2ccc(-c3nsc(-c4ccc(OCC(O)c5ccc(OC)c(OC)c5)cc4)n3)cc2)cc1OC (single isomer, unassigned) [Compound I-40, 1-(3,4-dimethoxyphenyl)-2-[4-[5-[4-[2-(3,4-dimethoxyphenyl)-2-hydroxy-ethoxy]phenyl]-1,2,4-thiadiazol-3-yl]phenoxy]ethanol]",281
3,"COc1ccc(C(O)COc2ccc(-c3nc(C)c(-c4ccc(OCC(O)c5ccc(OC)c(OC)c5)cc4)o3)cc2)cc1OC (single isomer, unassigned) [Compound I-46, 1-(3,4-dimethoxyphenyl)-2-[4-[2-[4-[2-(3,4-dimethoxyphenyl)-2-hydroxy-ethoxy]phenyl]-4-methyl-oxazol-5-yl]phenoxy]ethanol]",> 10000
4,"COc1cc(C(O)COc2ccc(-c3csc(-c4ccc(OCC(O)c5ccc(OC(F)F)c(OC)c5)cc4)n3)cc2)ccc1OC(F)F (single isomer, unassigned) [Compound I-51, 1-[4-(difluoromethoxy)-3-methoxy-phenyl]-2-[4-[2-[4-[2-[4-(difluoromethoxy)-3-methoxy-phenyl]-2-hydroxy-ethoxy]phenyl]thiazol-4-yl]phenoxy]ethanol]",> 10000
5,"COc1cc(C(O)COc2ccc(-c3coc(-c4ccc(OCC(O)c5ccc(Cl)c(OC)c5)cc4)n3)cc2)ccc1Cl (centres unmarked) [Compound I-15, 1-(4-chloro-3-methoxy-phenyl)-2-[4-[2-[4-[2-(4-chloro-3-methoxy-phenyl)-2-hydroxy-ethoxy]phenyl]oxazol-4-yl]phenoxy]ethanol]",1550
6,"COc1cc(C(O)COc2ccc(-c3coc(-c4ccc(OCC(O)c5ccc(F)c(OC)c5)cc4)n3)cc2)ccc1F (centres unmarked) [Compound I-16, 1-(4-fluoro-3-methoxy-phenyl)-2-[4-[2-[4-[2-(4-fluoro-3-methoxy-phenyl)-2-hydroxy-ethoxy]phenyl]oxazol-4-yl]phenoxy]ethanol]",354
7,"COc1ccc(C(O)COc2ccc(-c3coc(-c4ccc(OCC(O)c5ccc(OC)c(F)c5)cc4)n3)cc2)cc1F (centres unmarked) [Compound I-17, 1-(3-fluoro-4-methoxy-phenyl)-2-[4-[2-[4-[2-(3-fluoro-4-methoxy-phenyl)-2-hydroxy-ethoxy]phenyl]oxazol-4-yl]phenoxy]ethanol]",3960
8,"COc1cc(C(O)COc2ccc(-c3coc(-c4ccc(OCC(O)c5cc(OC)c(OC)c(OC)c5)cc4)n3)cc2)cc(OC)c1OC (centres unmarked) [Compound I-20, 2-[4-[2-[4-[2-hydroxy-2-(3,4,5-trimethoxyphenyl)ethoxy]phenyl]oxazol-4-yl]phenoxy]-1-(3,4,5-trimethoxyphenyl)ethanol]",1420
9,"COc1ccc(C(O)COc2ccc(-c3c[nH]c(-c4ccc(OCC(O)c5ccc(OC)c(OC)c5)cc4)n3)cc2)cc1OC (centres unmarked) [Compound I-53, 1-(3,4-dimethoxyphenyl)-2-[4-[2-[4-[2-(3,4-dimethoxyphenyl)-2-hydroxy-ethoxy]phenyl]-1H-imidazol-4-yl]phenoxy]ethanol]",956
10,"COc1ccc(C(O)C(C)(C)Oc2ccc(-c3c[nH]c(-c4ccc(OC(C)(C)C(O)c5ccc(OC)c(OC)c5)cc4)n3)cc2)cc1OC (centres unmarked) [Compound I-54, 1-(3,4-dimethoxyphenyl)-2-[4-[2-[4-[2-(3,4-dimethoxyphenyl)-2-hydroxy-1,1-dimethyl-ethoxy]phenyl]-1H-imidazol-4-yl]phenoxy]-2-methyl-propan-1-ol]",672
11,"COc1ccc(C(O)C(C)(C)Oc2ccc(-c3cn(CCN4CCOCC4)c(-c4ccc(OC(C)(C)C(O)c5ccc(OC)c(OC)c5)cc4)n3)cc2)cc1OC (centres unmarked) [Compound I-59, 1-(3,4-dimethoxyphenyl)-2-[4-[2-[4-[2-(3,4-dimethoxyphenyl)-2-hydroxy-1,1-dimethyl-ethoxy]phenyl]-1-(2-morpholinoethyl)imidazo1-4-yl]phenoxy]-2-methyl-propan-1-ol]",2750
